In brackets after ≈: the same amount, converted by molar mass. Where a SMILES comes first, the peptide text is derived from it.
Key:
[1] = tested on: methicillin-resistant S. aureus (BAA-40); format: cell-based
Procedure: (§1) Antimicrobial activity of block-like copolymers PDGu(x)-b-PBLK(y) against a panel of bacteria including both Gram-positive (S. aureus and B. subtilis) and Gram-negative (E. coli) in terms of minimal inhibition concentration (MIC) were tested. […] The activity was decreased with the increase of sugar ratio. This is reasonable when considering the killing domains became less.

S. aureus (ATCC 29213) = format: cell-based
Procedure: as §1

E. coli (ATCC 8739) = format: cell-based
Procedure: as §1

human red blood cells = test: Erythrocyte compatibility assay (hemolysis)
Procedure: Toxicity towards mammalian cells was another vital factor for bio-applications. […] Erythrocyte compatibility assay calculating the lysis of human red blood cells (HC10, concentration of polymers causing 10% human red blood cells lysed) was performed to characterize the in vitro biocompatibility.

MRSA USA300 = test: In vivo murine excision wound model; parameters: species or system Staphylococcus aureus
Excerpt: Staphylococcus aureus is the most common cause for skin and soft tissue infections (SSTIs). Among those, up to three quarter are caused by community-associated MRSA (CA-MRSA). MRSA USA300 is a significant CA-MRSA pathogen in the US. According to Centers for Disease Control and Prevention of US, 212 out of 218 MRSA isolates were type USA300. To further test the in vivo efficacy of PDGu(10)-b-PBLK(10) against the clinically significant pathogen MRSA USA300, a mice wound excision model was adopted using 8 weeks female C57BL6 mice. […] This could be attributed to the excellent antibacterial efficacy of the β-peptido sugar-copolymer in vivo.
The in vivo efficacy of PDGu(10)-b-PBLK(10) was further tested against MRSA USA 300 with a murine excision wound model using two infection durations with treatments applied either 4 hour or 24 hour post infection. For treatment applied 4 hour post infection, the β-peptido sugar-copolymer achieves a log reduction of 4.1 (FIG. 8a), which is slightly better than vancomycin, which has a log reduction of 3.7. […] In contrast, vancomycin treatment only achieves 2.0 log reduction of the bacteria burden at the wound site (p≤0.01). The excellent in vivo antibacterial efficacy of PDGu(10)-b-PBLK(10) may be correlated to its outstanding in vitro killing kinetics and anti-biofilm bacteria property.
Female C57BL6 mice (Invivos, Singapore) aged 8 weeks were used for excision wound model to evaluate in vivo antimicrobial efficacy of the β-peptido sugar-copolymer. All mice were housed on a 12 hour light-dark cycle at room temperature for one week prior to the experiment. Mice (n=7 per group) were anesthetized using isoflurane and hair from the back was removed with a shaver and sterile scalpel blade. The shaved area was further sterilized using 70% ethanol and a 5 mm diameter excision wound was created using a biopsy punch. In t=4 hour post infection model, 2.5 μL MRSA USA300 in PBS suspension (5×10^5 CFU/mL) was added to wound site and covered by Tegaderm (3M™) to protect from contamination. […]

CC[C@H](C)[C@H](NC(=O)[C@H](CCCCN)NC(=O)[C@H](CCC(=O)O)NC(=O)[C@H](CCCCN)NC(=O)[C@H](CO)NC(=O)[C@H](CCCCN)NC(=O)[C@H](CCCNC(=N)N)NC(=O)[C@H](Cc1ccccc1)NC(=O)[C@H](Cc1ccccc1)NC(=O)[C@H](CC(=O)O)NC(=O)CNC(=O)[C@H](CC(C)C)NC(=O)[C@@H](N)CC(C)C)C(=O)NCC(=O)N[C@@H](CCCCN)C(=O)N[C@@H](CCC(=O)O)C(=O)N[C@@H](Cc1ccccc1)C(=O)N[C@@H](CCCCN)C(=O)N[C@@H](CCCNC(=N)N)C(=O)N[C@H](C(=O)N[C@H](C(=O)N[C@@H](CCC(N)=O)C(=O)N[C@@H](CCCNC(=N)N)C(=O)N[C@H](C(=O)N[C@@H](CCCCN)C(=O)N[C@@H](CC(=O)O)C(=O)N[C@@H](Cc1ccccc1)C(=O)N[C@@H](CC(C)C)C(=O)N[C@@H](CCCNC(=N)N)C(=O)N[C@@H](CC(N)=O)C(=O)N[C@@H](CC(C)C)C(=O)N[C@H](C(=O)N1CCC[C@H]1C(=O)N[C@@H](CCCNC(=N)N)C(=O)N[C@H](C(=O)N[C@@H](CCC(=O)O)C(=O)N[C@@H](CO)C(=O)O)[C@@H](C)O)C(C)C)[C@@H](C)CC)C(C)C)[C@@H](C)CC [LL37]
MIC MRSA [1]: >512 µg/mL

CC[C@H](C)[C@H](NC(=O)CN)C(=O)NCC(=O)N[C@@H](CCCCN)C(=O)N[C@@H](Cc1ccccc1)C(=O)N[C@@H](CC(C)C)C(=O)N[C@@H](Cc1c[nH]cn1)C(=O)N[C@@H](CO)C(=O)N[C@@H](C)C(=O)N[C@@H](CCCCN)C(=O)N[C@@H](CCCCN)C(=O)N[C@@H](Cc1ccccc1)C(=O)NCC(=O)N[C@@H](CCCCN)C(=O)N[C@@H](C)C(=O)N[C@@H](Cc1ccccc1)C(=O)N[C@H](C(=O)NCC(=O)N[C@@H](CCC(=O)O)C(=O)N[C@H](C(=O)N[C@@H](CCSC)C(=O)N[C@@H](CC(N)=O)C(=O)N[C@@H](CO)C(=O)O)[C@@H](C)CC)C(C)C [Magainin 2] (H-GIGKFLHSAKKFGKAFVGEIMNS-OH)
MIC SA 29213 (S. aureus (ATCC 29213)): >512 µg/mL
MIC E. coli (E. coli (ATCC 8739)): 64 µg/mL (≈ 25.9 µM)
MIC MRSA [1]: >512 µg/mL
HC10 RBC (concentration causing 10% human red blood cells lysed) (human red blood cells): >500 µg/mL

CC[C@H](C)[C@H](NC(=O)CN)C(=O)NCC(=O)N[C@@H](C)C(=O)N[C@H](C(=O)N[C@@H](CC(C)C)C(=O)N[C@@H](CCCCN)C(=O)N[C@H](C(=O)N[C@@H](CC(C)C)C(=O)N[C@H](C(=O)N[C@H](C(=O)NCC(=O)N[C@@H](CC(C)C)C(=O)N1CCC[C@H]1C(=O)N[C@@H](C)C(=O)N[C@@H](CC(C)C)C(=O)N[C@H](C(=O)N[C@@H](CO)C(=O)N[C@@H](Cc1c[nH]c2ccccc12)C(=O)N[C@H](C(=O)N[C@@H](CCCCN)C(=O)N[C@@H](CCCNC(=N)N)C(=O)N[C@@H](CCCCN)C(=O)N[C@@H](CCCNC(=N)N)C(=O)N[C@@H](CCC(N)=O)C(=O)N[C@@H](CCC(N)=O)C(N)=O)[C@@H](C)CC)[C@@H](C)CC)[C@@H](C)O)[C@@H](C)O)C(C)C)C(C)C [Melittin]
HC10 RBC (concentration causing 10% human red blood cells lysed) (human red blood cells): 8 µg/mL

CN[C@H](CC(C)C)C(=O)N[C@H]1C(=O)N[C@@H](CC(N)=O)C(=O)N[C@H]2C(=O)N[C@H]3C(=O)N[C@H](C(=O)N[C@H](C(=O)O)c4cc(O)cc(O)c4-c4cc3ccc4O)[C@H](O)c3ccc(c(Cl)c3)Oc3cc2cc(c3O[C@@H]2O[C@H](CO)[C@@H](O)[C@H](O)[C@H]2O[C@H]2C[C@](C)(N)[C@H](O)[C@H](C)O2)Oc2ccc(cc2Cl)[C@H]1O [vancomycin]
in vivo activity compared with the β-peptido sugar-copolymer (MRSA USA300; mice wound excision model, MRSA USA300): does not show superior activity
log reduction of MRSA USA300 (MRSA USA300; treatment applied 4 hour post infection, single dose 2.5 mg/kg (FIG. 8a)): 3.7 log
log reduction of total bacteria count (MRSA USA300; treatment initiated 24 hour post infection, three times with 4-hour interval, 2.5 mg/kg (FIG. 8b)): 2.0 log

Polymyxin B
MIC SA 29213 (S. aureus (ATCC 29213)): 32 µg/mL
MIC E. coli (E. coli (ATCC 8739)): 2 µg/mL
MIC MRSA [1]: 64 µg/mL
HC10 RBC (concentration causing 10% human red blood cells lysed) (human red blood cells): >2500 µg/mL
